One data set relates to cancer cells (A549). Put plainly: Dose response on A549 cancer cells. It is filed as cell-based. Particulars: A549, scramble versus DNAzyme 1670 (FIG. 16B). From the text: (§1) PANC-1 cells were maintained in DMEM medium supplemented with 10% fetal bovine serum, 1% penicillin-streptomycin and 1% sodium pyruvate. HCT116 cells were maintained in McCoy's 5A medium supplemented with 10% fetal bovine serum and 1% penicillin-streptomycin. A549 cells were maintained in F-12K Medium supplemented with 10% fetal bovine serum and 1% penicillin-streptomycin. HepG2 cell were maintained Eagle's Minimum Essential Medium, supplemented in 10% fetal bovine serum, 1% penicillin-streptomycin and 1% sodium pyruvate. All cancer cell lines were incubated in 5% C02 at 37° C.
(§2) Cancer cell lines were seeded in 96 well plates 24 hours before treatment. Chemotherapies were applied at indicated concentrations either alone or as combination with DNAzyme-lipofectamine complex. 72 hours following treatment, cell viability was measured using Prestoblue® reagent. Chemotherapies were diluted in cell medium to the indicated concentrations. 24 hours following seeding, culture medium was replaced with chemotherapy containing medium, immediately followed by transfection of DNAzyme as described above. 72 hours following treatment, cell viability was measured using Prestoblue® reagent.

The test system of data set [1] is cancer cell lines (HepG2, A549, Panc1, HCT-116). In words: Chemotherapy and DNAzyme combination, several cancer cell lines. To be noted: therapy induced senescence, viability 72 hours following treatment (FIG. 12F). It is filed as cell-based.
Excerpt: as §1, §2
(§3) The following chemotherapies were used: Etoposide (Sigma), Palbociclib (Sigma), Doxorubicin (Sigma), Cisplatin (Sigma), ABT-263 (Selleckchem). All compounds were dissolved and stored according to manufacturer instructions.

The subject of another data set is human p21 mRNA. In words: In vitro cleavage assay of human p21 mRNA. It is filed as biochemical. To be noted: in vitro cleavage of p21 mRNA (SEQ ID NO: 1); RNA substrate 500 nM, 37° C. 60 min, agarose gel. The method, boiled down: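 RNA substrates were T7 in vitro transcripts from PCR-amplified cDNA (source RNA: senescent IMR-90 cells), gel-purified. Substrate at 500 nM final was incubated with DNAzyme (10 μM stock) in reaction buffer (10× stock: 50 mM Tris-HCl pH 7.4, 100 mM NaCl, 10 mM MgCl2) for 60 min at 37 °C. Cleavage products were resolved on 1.5% agarose TBE gels and quantified by densitometry.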

The next data set relates to HepG2 cells. In words: Chemotherapy and DNAzyme combination, HepG2. It is filed as cell-based.
Excerpt: as §1, §2, §3

A short description of data set [2]: DNAzyme stability analysis in serum. The class given is in vitro ADME. On the procedure: DNAzyme stability was assessed by incubation with PBS, plasma and BALF (Bronchoalveolar Lavage Fluid). A comparison between unmodified and 3′Inverted dT modification was made. Following incubation for the indicated time points, samples were analyzed using gel electrophoresis. Quantification compared to time 0 was performed using Image Lab software (Bio Rad).

“Also recorded” adds a separate entry of the source.

As to “DNAzyme 1670: SEQ ID NO: 54: GGGAAAGGAggctagctacaacgaAAGGGGGAG (DNA GGGAAAGGAGGCTAGCTACAACGAAAGGGGGAG; DNA, backbone and methylation of C not given here)”, the “senolytic effect, dose response” value in the data set with cancer cells (A549) was “senolytic effect in a wide range of doses; also recorded: effective at much lower concentration”. Also, the “efficacy of sub-clinical Etoposide in combination with DNAzyme” value in data set [1] was “comparable to that of clinical Etoposide dose”. For the same substance, the Validated cleavage result in the data set on human p21 mRNA was “time and concentration dependent; also recorded: validated for mediating cleavage of p21 mRNA”. In addition, in the data set on HepG2 cells (HepG2 (FIG. 12G)), the “sub-clinical doses of various chemotherapies in combination with DNAzyme, synergy” value was “synergistic activity”. The “combination treatment of Etoposide and DNAzyme, synergy” value in the data set with HepG2 cells (liver cancer cell line HepG2 (FIG. 12F)) is listed as “good synergistic results”. Besides, in data set [2] (unmodified DNAzyme, from the start of incubation (FIG. 13A)), the “time to complete degradation in serum” value is 48 h. Further, in data set [2] (with 3′ inverted dT modification versus unmodified (FIG. 13B)), the “time to degradation in serum” value was “significantly increased”.

(Values after US11879140B2, “P21 mRNA targeting DNAzymes” (1E Therapeutics Ltd., priority 2020, dated 2024).)
